{"source": "paper PMC2172902", "about": "(The Journal of Cell Biology, 2003)", "tested_on": "DLD-1 cells", "assay": "chromosome alignment in cultures treated with proteosome inhibitor", "type": "cell-based, human", "conditions": "control cultures, 20 μM", "note": "Peptide text beside a SMILES is read from it. * marks the point of attachment. Cbz = O=C(OCc1ccccc1)*", "data": [{"smiles": "CC(C)C[C@@H](C=O)NC(=O)[C@H](CC(C)C)NC(=O)[C@H](CC(C)C)NC(=O)OCc1ccccc1", "note": "[MG132] (Cbz-Leu-Leu-Leu-aldehyde)", "values": [{"measurement": "proportion of metaphases", "result": "~66", "unit": "%"}, {"measurement": "proportion of prometaphases", "result": "~25", "unit": "%"}]}]}
